Data published in US20250333407A1, “Compounds and Their Use for Treatment of Hemoglobinopathies” (Bristol-Myers Squibb Company, priority 2024, published 2025).

Experiments:
Format in all cases: cell-based
ZBTB7A = target: T1, ZBTB7A (Homo sapiens, UniProt O95365+Q96SW2); assay: HUDEP-2 ZBTB7A HiBiT degradation assay; conditions: HiBiT-tagged ZBTB7A degradation in HUDEP-2 cells, 24 hours of treatment; read-out: ZBTB7A EC50
T1 construct: HUDEP-2 cells engineered to express a HiBiT tag in either the WIZ (Widely interspaced zinc finger) or ZBTB7A
How it was run: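 HiBiT-tagged HUDEP-2 cells were pre-cultured 48 h in IMDM with EPO, SCF, doxycycline and 5% human plasma, then exposed to compounds at 1.0×10^6 cells/ml for 24 h at 37 °C. Nano-Glo HiBiT lytic luminescence, normalised to DMSO over 10 concentrations, gave EC50 and Y-min.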

WIZ = target: T2, WIZ (Homo sapiens, UniProt O95785+Q96SW2); assay: HUDEP-2 WIZ HiBiT degradation assay; conditions: HiBiT-tagged WIZ degradation in HUDEP-2 cells, 24 hours of treatment; read-out: WIZ EC50
T2 construct: HUDEP-2 cells engineered to express a HiBiT tag in either the WIZ (Widely interspaced zinc finger) or ZBTB7A
How it was run: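 HiBiT-tagged HUDEP-2 cells at 1.0×10^6 cells/ml in SFEM II with SCF, EPO, dexamethasone and doxycycline, treated 24 h at 37 °C with a 10-point series ([…]). Luminescence after HiBiT lytic detection, normalized to DMSO; EC50 and Y-min from fitted curves.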

HbF = HbF HiBiT induction assay in HUDEP-2 cells; conditions: HUDEP-2 cells with HiBiT tag in HBG1/2, 72 hours of treatment; area under the dose response curve, higher AUC = greater HbF induction
How it was run: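 HUDEP-2 cells carrying a HiBiT tag on HBG1/2 were exposed to compounds for 72 h at 37° C, 5% CO2, in IMDM with EPO, hSCF, DOX, transferrin, insulin, heparin and 5% human plasma. HiBiT luminescence was read after lytic detection; HbF induction is expressed as dose-response AUC, alongside EC50 and Ymax.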

T2 sequence (O95785 whole entry): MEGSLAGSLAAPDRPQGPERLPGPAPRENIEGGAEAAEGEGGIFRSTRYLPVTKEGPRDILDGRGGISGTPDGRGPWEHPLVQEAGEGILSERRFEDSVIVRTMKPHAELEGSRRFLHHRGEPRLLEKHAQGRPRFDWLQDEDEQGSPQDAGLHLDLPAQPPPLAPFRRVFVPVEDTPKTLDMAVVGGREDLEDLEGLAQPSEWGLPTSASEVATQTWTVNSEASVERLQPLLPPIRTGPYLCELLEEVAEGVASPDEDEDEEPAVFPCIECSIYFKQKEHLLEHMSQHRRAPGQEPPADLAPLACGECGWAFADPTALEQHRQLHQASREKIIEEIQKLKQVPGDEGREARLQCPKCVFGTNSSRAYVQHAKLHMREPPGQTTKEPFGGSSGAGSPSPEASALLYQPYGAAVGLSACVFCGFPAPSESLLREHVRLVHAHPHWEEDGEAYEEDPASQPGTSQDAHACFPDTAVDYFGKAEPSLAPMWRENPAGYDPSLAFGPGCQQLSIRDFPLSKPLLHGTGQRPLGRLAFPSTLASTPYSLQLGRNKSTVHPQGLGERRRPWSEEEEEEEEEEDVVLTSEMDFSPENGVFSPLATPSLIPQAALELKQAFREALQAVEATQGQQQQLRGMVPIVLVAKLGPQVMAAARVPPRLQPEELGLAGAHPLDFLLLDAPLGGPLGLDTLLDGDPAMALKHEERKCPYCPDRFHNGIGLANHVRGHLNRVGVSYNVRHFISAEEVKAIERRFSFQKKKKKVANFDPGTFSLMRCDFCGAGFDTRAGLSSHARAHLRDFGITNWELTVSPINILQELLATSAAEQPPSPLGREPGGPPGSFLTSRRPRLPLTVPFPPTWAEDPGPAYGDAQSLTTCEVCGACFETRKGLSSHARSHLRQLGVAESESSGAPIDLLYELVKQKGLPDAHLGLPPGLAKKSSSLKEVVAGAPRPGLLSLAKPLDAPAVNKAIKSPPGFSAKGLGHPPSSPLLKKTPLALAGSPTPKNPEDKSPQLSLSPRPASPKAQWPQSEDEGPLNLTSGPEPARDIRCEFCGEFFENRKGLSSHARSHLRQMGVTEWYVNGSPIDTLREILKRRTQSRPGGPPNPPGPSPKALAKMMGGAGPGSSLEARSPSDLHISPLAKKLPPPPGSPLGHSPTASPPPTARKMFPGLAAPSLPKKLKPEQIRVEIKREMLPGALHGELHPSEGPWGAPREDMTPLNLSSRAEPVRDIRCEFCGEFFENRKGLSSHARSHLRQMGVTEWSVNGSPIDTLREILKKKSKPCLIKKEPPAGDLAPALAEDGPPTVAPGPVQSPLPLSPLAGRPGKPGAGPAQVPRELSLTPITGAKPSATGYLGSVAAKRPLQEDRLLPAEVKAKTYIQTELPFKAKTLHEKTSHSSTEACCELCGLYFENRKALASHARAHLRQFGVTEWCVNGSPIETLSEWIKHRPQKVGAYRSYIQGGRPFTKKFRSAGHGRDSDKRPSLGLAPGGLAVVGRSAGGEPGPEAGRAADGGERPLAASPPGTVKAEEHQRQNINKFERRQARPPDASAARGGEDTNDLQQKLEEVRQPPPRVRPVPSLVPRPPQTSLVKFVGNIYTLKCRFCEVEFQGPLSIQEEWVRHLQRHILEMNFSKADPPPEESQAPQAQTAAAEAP
T2 sequence (Q96SW2 whole entry): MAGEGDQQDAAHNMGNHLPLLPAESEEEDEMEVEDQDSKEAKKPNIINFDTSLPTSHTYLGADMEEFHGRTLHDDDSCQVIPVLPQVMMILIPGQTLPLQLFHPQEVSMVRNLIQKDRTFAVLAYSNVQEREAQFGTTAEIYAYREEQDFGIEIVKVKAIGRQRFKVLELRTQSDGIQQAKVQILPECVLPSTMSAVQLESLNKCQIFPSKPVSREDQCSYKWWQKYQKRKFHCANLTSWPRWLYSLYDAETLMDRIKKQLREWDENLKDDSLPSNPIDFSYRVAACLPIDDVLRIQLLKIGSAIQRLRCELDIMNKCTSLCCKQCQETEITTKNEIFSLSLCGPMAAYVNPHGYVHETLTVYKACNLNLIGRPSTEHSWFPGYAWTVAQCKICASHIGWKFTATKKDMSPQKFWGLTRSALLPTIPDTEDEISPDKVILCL
T2 sequence (Q16531 whole entry partner): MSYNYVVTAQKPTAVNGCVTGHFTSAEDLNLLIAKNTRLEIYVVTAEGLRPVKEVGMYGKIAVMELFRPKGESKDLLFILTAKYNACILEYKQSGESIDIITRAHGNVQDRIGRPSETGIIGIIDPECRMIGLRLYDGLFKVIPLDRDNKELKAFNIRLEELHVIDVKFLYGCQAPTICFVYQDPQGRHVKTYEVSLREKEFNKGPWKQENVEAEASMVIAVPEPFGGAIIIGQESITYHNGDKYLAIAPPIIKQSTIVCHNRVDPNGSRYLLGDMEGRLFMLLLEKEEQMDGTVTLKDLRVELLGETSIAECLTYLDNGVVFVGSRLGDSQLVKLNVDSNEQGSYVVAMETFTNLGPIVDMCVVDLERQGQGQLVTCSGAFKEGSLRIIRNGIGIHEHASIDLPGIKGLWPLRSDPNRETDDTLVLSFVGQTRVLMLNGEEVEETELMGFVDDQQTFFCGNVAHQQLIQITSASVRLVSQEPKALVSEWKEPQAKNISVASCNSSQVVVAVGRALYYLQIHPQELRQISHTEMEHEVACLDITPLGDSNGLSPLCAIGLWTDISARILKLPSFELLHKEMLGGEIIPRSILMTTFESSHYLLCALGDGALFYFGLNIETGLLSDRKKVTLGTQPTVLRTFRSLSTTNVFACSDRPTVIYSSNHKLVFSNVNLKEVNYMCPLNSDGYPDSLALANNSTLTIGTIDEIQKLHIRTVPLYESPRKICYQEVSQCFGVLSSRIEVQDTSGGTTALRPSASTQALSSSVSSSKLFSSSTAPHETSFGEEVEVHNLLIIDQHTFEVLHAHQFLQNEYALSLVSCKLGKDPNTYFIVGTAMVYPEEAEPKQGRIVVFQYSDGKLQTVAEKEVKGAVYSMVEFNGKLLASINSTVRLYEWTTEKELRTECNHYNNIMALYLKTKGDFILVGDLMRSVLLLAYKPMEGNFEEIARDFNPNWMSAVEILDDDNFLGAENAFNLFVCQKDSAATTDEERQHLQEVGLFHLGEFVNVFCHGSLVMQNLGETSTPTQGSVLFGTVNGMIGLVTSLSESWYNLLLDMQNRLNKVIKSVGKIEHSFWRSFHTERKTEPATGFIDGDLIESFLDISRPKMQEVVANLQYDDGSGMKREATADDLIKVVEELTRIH
T1 sequence (O95365 whole entry): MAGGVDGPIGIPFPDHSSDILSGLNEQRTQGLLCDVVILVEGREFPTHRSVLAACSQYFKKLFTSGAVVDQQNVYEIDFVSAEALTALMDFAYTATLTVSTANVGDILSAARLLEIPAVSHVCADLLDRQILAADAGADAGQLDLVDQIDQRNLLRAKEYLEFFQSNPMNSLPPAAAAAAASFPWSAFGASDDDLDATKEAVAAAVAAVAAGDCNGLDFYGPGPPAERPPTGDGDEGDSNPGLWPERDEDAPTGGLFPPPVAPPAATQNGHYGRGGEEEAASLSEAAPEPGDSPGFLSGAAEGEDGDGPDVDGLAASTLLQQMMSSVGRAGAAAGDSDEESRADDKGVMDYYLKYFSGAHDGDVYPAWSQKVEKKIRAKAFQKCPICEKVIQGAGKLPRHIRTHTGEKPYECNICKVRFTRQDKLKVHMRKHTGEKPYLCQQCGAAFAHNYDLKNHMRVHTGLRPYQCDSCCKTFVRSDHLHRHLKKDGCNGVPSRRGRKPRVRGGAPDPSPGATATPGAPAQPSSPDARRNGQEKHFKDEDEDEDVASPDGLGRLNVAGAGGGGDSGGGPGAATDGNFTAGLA
T1 sequence (Q96SW2 whole entry): as the sequence (Q96SW2 whole entry) above
T1 sequence (Q16531 whole entry partner): as the sequence (Q16531 whole entry partner) above

Row | Structure (SMILES) | DC50 (ZBTB7A) [nM] | DC50 (WIZ) [nM] | HBF AUC (HbF)
1 | Cc1cc(-c2cc3c(cc2Nc2cccc4c2C(=O)N([C@H]2CCC(=O)NC2=O)C4=O)N(C)C(=O)[C@@H](C)O3)c(F)cn1 [Compound 27, 2-((S)-2,6-dioxopiperidin-3-yl)-4-(((R)-7-(5-fluoro-2-methylpyridin-4-yl)-2,4-dimethyl-3-oxo-3,4-dihydro-2H-benzo[b][1,4]oxazin-6-yl)amino)isoindoline-1,3-dione] | 11 | 6 | + (+ = 15 ≤ AUC < 100)
2 | Cc1cc(-c2cc3c(cc2Nc2cccc4c2C(=O)N(C2CCC(=O)NC2=O)C4=O)N(C)C(=O)CO3)cc(C2CC2)n1 (stereo not drawn) [Compound 57, 4-((7-(2-cyclopropyl-6-methylpyridin-4-yl)-4-methyl-3-oxo-3,4-dihydro-2H-benzo[b][1,4]oxazin-6-yl)amino)-2-(2,6-dioxopiperidin-3-yl)isoindoline-1,3-dione] | 54 | 18 | +++ (+++ = AUC ≥ 150)
3 | CCO[C@H]1CC[C@H](c2cc3c(cc2Nc2cccc4c2C(=O)N([C@H]2CCC(=O)NC2=O)C4=O)N(C)C(=O)CO3)CC1 [Compound 44, 2-((S)-2,6-dioxopiperidin-3-yl)-4-((7-((1r,4S)-4-ethoxycyclohexyl)-4-methyl-3-oxo-3,4-dihydro-2H-benzo[b][1,4]oxazin-6-yl)amino)isoindoline-1,3-dione] | 6 | 4 | ++ (++ = 100 ≤ AUC < 150)
4 | Cc1cc(-c2cc3c(cc2Nc2cccc4c2C(=O)N([C@H]2CCC(=O)NC2=O)C4=O)N(C)C(=O)[C@H](C)O3)cc(C(F)F)n1 [Compound 48, 4-(((S)-7-(2-(difluoromethyl)-6-methylpyridin-4-yl)-2,4-dimethyl-3-oxo-3,4-dihydro-2H-benzo[b][1,4]oxazin-6-yl)amino)-2-((S)-2,6-dioxopiperidin-3-yl)isoindoline-1,3-dione] | 52 | 31 | ++ (++ = 100 ≤ AUC < 150)
5 | Cc1cc(-c2cc3c(cc2Nc2cccc4c2C(=O)N([C@H]2CCC(=O)NC2=O)C4=O)N(C)C(=O)OC3C)cc(C)n1 (stereo partly drawn) [Compound 72, 4-((6-(2,6-dimethylpyridin-4-yl)-1,4-dimethyl-2-oxo-1,4-dihydro-2H-benzo[d][1,3]oxazin-7-yl)amino)-2-((S)-2,6-dioxopiperidin-3-yl)isoindoline-1,3-dione] | 21 | 14 | +++ (+++ = AUC ≥ 150)
6 | CCO[C@H]1CC[C@H](c2cc3c(cc2Nc2cccc4c2C(=O)N([C@@H]2CCC(=O)NC2=O)C4=O)N(C)C(=O)[C@H](C)O3)CC1 [Compound 55, 2-((R)-2,6-dioxopiperidin-3-yl)-4-(((S)-7-((1r,4S)-4-ethoxycyclohexyl)-2,4-dimethyl-3-oxo-3,4-dihydro-2H-benzo[b][1,4]oxazin-6-yl)amino)isoindoline-1,3-dione] | 9 | 6 | ++ (++ = 100 ≤ AUC < 150)
7 | CN1C(=O)COc2cc(-c3ccnc(C(F)F)c3)c(Nc3cccc4c3C(=O)N([C@H]3CCC(=O)NC3=O)C4=O)cc21 [Compound 9, (S)-4-((7-(2-(difluoromethyl)pyridin-4-yl)-4-methyl-3-oxo-3,4-dihydro-2H-benzo[b][1,4]oxazin-6-yl)amino)-2-(2,6-dioxopiperidin-3-yl)isoindoline-1,3-dione] | 32 | 24 | + (+ = 15 ≤ AUC < 100)
8 | CN1C(=O)COc2cc([C@H]3CC[C@H](C#N)CC3)c(Nc3cccc4c3C(=O)N(C3CCC(=O)NC3=O)C4=O)cc21 (stereo partly drawn) [Compound 53, (1r,4r)-4-(6-((2-(2,6-dioxopiperidin-3-yl)-1,3-dioxoisoindolin-4-yl)amino)-4-methyl-3-oxo-3,4-dihydro-2H-benzo[b][1,4]oxazin-7-yl)cyclohexane-1-carbonitrile] | 10 | 4 | ++ (++ = 100 ≤ AUC < 150)
9 | CCO[C@H]1CC[C@H](c2cc3c(cc2Nc2cccc4c2C(=O)N([C@H]2CCC(=O)NC2=O)C4=O)N(C)C(=O)[C@H](C)O3)CC1 [Compound 46, 2-((S)-2,6-dioxopiperidin-3-yl)-4-(((S)-7-((1r,4S)-4-ethoxycyclohexyl)-2,4-dimethyl-3-oxo-3,4-dihydro-2H-benzo[b][1,4]oxazin-6-yl)amino)isoindoline-1,3-dione] | 7 | 2 | ++ (++ = 100 ≤ AUC < 150)
10 | Cc1cc(-c2cc3c(cc2Nc2cccc4c2C(=O)N([C@H]2CCC(=O)NC2=O)C4=O)N(C)C(=O)O[C@H]3C)c(F)cn1 [Compound 73, 2-((S)-2,6-dioxopiperidin-3-yl)-4-(((S)-6-(5-fluoro-2-methylpyridin-4-yl)-1,4-dimethyl-2-oxo-1,4-dihydro-2H-benzo[d][1,3]oxazin-7-yl)amino)isoindoline-1,3-dione] | 11 | 12 | ++ (++ = 100 ≤ AUC < 150)
11 | Cc1cc(-c2cc3c(cc2Nc2cccc4c2C(=O)N(C2CCC(=O)NC2=O)C4=O)N(C)C(=O)CO3)cc(F)c1F (stereo not drawn) [Compound 13, 4-((7-(3,4-difluoro-5-methylphenyl)-4-methyl-3-oxo-3,4-dihydro-2H-benzo[b][1,4]oxazin-6-yl)amino)-2-(2,6-dioxopiperidin-3-yl)isoindoline-1,3-dione] | 38 | 50 | + (+ = 15 ≤ AUC < 100)
12 | Cc1cc(-c2c(Nc3cccc4c3C(=O)N(C3CCC(=O)NC3=O)C4=O)cc3c(c2F)OCC(=O)N3C)cc(C(F)F)n1 (stereo not drawn) [Compound 77, 4-((7-(2-(difluoromethyl)-6-methylpyridin-4-yl)-8-fluoro-4-methyl-3-oxo-3,4-dihydro-2H-benzo[b][1,4]oxazin-6-yl)amino)-2-(2,6-dioxopiperidin-3-yl)isoindoline-1,3-dione] | 102 | 112 | + (+ = 15 ≤ AUC < 100)

More lines, main results first:

Row | DC50 (ZBTB7A) [nM] | DC50 (WIZ) [nM] | Structure (SMILES) | HBF AUC (HbF)
13 | 17 | 21 | Cc1cc(-c2cc3c(cc2Nc2cccc4c2C(=O)N([C@H]2CCC(=O)NC2=O)C4=O)N(C)C(=O)OC3)ccn1 [Compound 11, (S)-2-(2,6-dioxopiperidin-3-yl)-4-((1-methyl-6-(2-methylpyridin-4-yl)-2-oxo-1,4-dihydro-2H-benzo[d][1,3]oxazin-7-yl)amino)isoindoline-1,3-dione] | ++ (++ = 100 ≤ AUC < 150)
14 | 49 | 9 | Cc1cc(-c2cc3c(cc2Nc2cccc4c2C(=O)N([C@H]2CCC(=O)NC2=O)C4=O)N(C)C(=O)[C@@H](C)O3)ccn1 [Compound 6, 4-(((R)-2,4-dimethyl-7-(2-methylpyridin-4-yl)-3-oxo-3,4-dihydro-2H-benzo[b][1,4]oxazin-6-yl)amino)-2-((S)-2,6-dioxopiperidin-3-yl)isoindoline-1,3-dione] | + (+ = 15 ≤ AUC < 100)
15 | 12 | 17 | Cc1cc(-c2cc3c(cc2Nc2cccc4c2C(=O)N([C@H]2CCC(=O)NC2=O)C4=O)N(C)C(=O)O[C@@H]3C)ccn1 [Compound 21, 4-(((R)-1,4-dimethyl-6-(2-methylpyridin-4-yl)-2-oxo-1,4-dihydro-2H-benzo[d][1,3]oxazin-7-yl)amino)-2-((S)-2,6-dioxopiperidin-3-yl)isoindoline-1,3-dione] | + (+ = 15 ≤ AUC < 100)
16 | 10 | 9 | Cc1cc(-c2cc3c(cc2Nc2cccc4c2C(=O)N([C@@H]2CCC(=O)NC2=O)C4=O)N(C)C(=O)CO3)c(F)cn1 [Compound 58, (R)-2-(2,6-dioxopiperidin-3-yl)-4-((7-(5-fluoro-2-methylpyridin-4-yl)-4-methyl-3-oxo-3,4-dihydro-2H-benzo[b][1,4]oxazin-6-yl)amino)isoindoline-1,3-dione] | ++ (++ = 100 ≤ AUC < 150)
17 | 28 | 27 | Cc1cc(-c2c(Nc3cccc4c3C(=O)N([C@H]3CCC(=O)NC3=O)C4=O)cc3c(c2F)C(C)OC(=O)N3C)ccn1 (stereo partly drawn) [Compound 79, 2-((S)-2,6-dioxopiperidin-3-yl)-4-((5-fluoro-1,4-dimethyl-6-(2-methylpyridin-4-yl)-2-oxo-1,4-dihydro-2H-benzo[d][1,3]oxazin-7-yl)amino)isoindoline-1,3-dione] | + (+ = 15 ≤ AUC < 100)
18 | 24 | 14 | Cc1cc(-c2c(Nc3cccc4c3C(=O)N([C@H]3CCC(=O)NC3=O)C4=O)cc3c(c2F)CCC(=O)N3C)ccn1 [Compound 90, (S)-2-(2,6-dioxopiperidin-3-yl)-4-((5-fluoro-1-methyl-6-(2-methylpyridin-4-yl)-2-oxo-1,2,3,4-tetrahydroquinolin-7-yl)amino)isoindoline-1,3-dione] | ++ (++ = 100 ≤ AUC < 150)
19 | 28 | 17 | C=CN1C(=O)CCc2cc(-c3ccnc(C)c3)c(Nc3cccc4c3C(=O)N(C3CCC(=O)NC3=O)C4=O)cc21 (stereo not drawn) [Compound 94, 2-(2,6-dioxopiperidin-3-yl)-4-((6-(2-methylpyridin-4-yl)-2-oxo-1-vinyl-1,2,3,4-tetrahydroquinolin-7-yl)amino)isoindoline-1,3-dione] | + (+ = 15 ≤ AUC < 100)
